{"source": "patent US9963674B2", "about": "“Age-modified cells and methods for making age-modified cells” (Memorial Sloan-Kettering Cancer Center, priority 2013, dated 2018)", "key": {"iPSC-derived mDA neurons": {"test_system": "iPSC-derived mDA neurons", "test": "mDA neuron marker expression (NURR1, TH) as sign of acute toxicity", "format": "cell-based, human", "details": "treatment of mDA neurons", "procedure": "Cells were fixed in 4% paraformaldehyde for 15 minutes. Blocking was performed in phosphate-buffered saline supplemented with 1% BSA, and 0.3% Triton X-100 for 30 minutes to 1 hour. Cells were stained overnight at 4° C. with primary antibodies diluted in blocking buffer. Following several washes, cells were stained with appropriate Alexa Fluor-labeled secondary antibodies (Molecular Probes, Carlsbad, Calif.) at 1:500 in blocking buffer for 30 minutes to 3 hours at room temperature. Cells were counterstained with 4′,6-diamidino-2-phenylindole (DAPI; Thermo Fisher, Rockford, Ill.) to visualize nuclei. Images were acquired with an Olympus IX81 microscope using a Hamamatsu ORCA CCD camera.\nCells were collected with a cell lifter (Corning, Tewksbury, Mass.) in ice-cold phosphate-buffered saline without calcium or magnesium (PBS−/−). Cell pellets were rapidly frozen on ethanol and dry ice and stored at −80° C. Cell pellets were thawed on ice and resuspended in 50-200 μl RIPA lysis buffer (50 mM Tris-HCl pH 8.0, 120 mM NaCl, 6 mM EDTA, 0.5% NP-40) with 1% sodium dodecyl sulfate (SDS). Cell suspensions were vortexed at 15-minute intervals during a 45-minute incubation on ice. Lysates were isolated following a 10,000 rpm spin for 10 minutes at 4° C. 20-40 μg samples were further diluted with 4× Laemmli sample buffer, boiled for 5 minutes at 95° C., and loaded onto a NuPAGE 4-12% Bis-Tris precast gel (Life Technologies). Gel electrophoresis was performed at 100 V for 2 hours. Gels were transferred to a methanol activated PVDF membrane using the XCell II Blot Module (Life Technologies) according to the manufacturer's instructions. Blots were blocked in 3% bovine serum albumin (BSA) in Tris buffered saline plus 0.1% Tween-20 (TBS-T) for 45 minutes at room temperature. […]\nFollowing several washes with TBS-T, blots were incubated in appropriate HRP-labeled secondary antibodies (Jackson ImmunoResearch, West Grove, Pa.) for 1 hour at room temperature. […] Densitometry quantification was performed using ImageJ on blots from three independent experiments."}, "[1]": {"test_system": "proliferating cells in iPSC-derived mDA neuron cultures", "test": "Mitomycin C treatment of iPSC-derived mDA neuron cultures", "format": "cell-based, human", "details": "1 day following the final day 30 replating", "procedure": "One to two days after plating, cells were treated with 1 μg/ml mitomycin C (Tocris) for 1 hour to kill any remaining proliferating contaminants. iPSC-derived mDA neurons were fed every 2 to 3 days and maintained without passaging until the desired timepoint for a given experiment. PO, laminin and fibronectin were added to the medium every 7-10 days to prevent neurons from lifting off."}, "[2]": {"test_system": "doxycycline (dox)-inducible fibroblast line", "test": "Reversibility of progerin-induced nuclear changes in doxycycline-inducible fibroblast line", "format": "cell-based", "details": "following re-addition of doxycycline"}, "motor neurons (MNs)": {"test_system": "motor neurons (MNs)", "details": "after trophic factor withdrawal (Yang et al.); cited from earlier work"}}, "data": [{"smiles": "N#CC(C#N)=NNc1cccc(Cl)c1", "note": "[CCCP, carbonyl cyanide 3-chlorophenylhydrazone, reference compound]", "values": [{"measurement": "mDA neuron marker expression after mitochondrial toxin", "setting": "iPSC-derived mDA neurons", "result": "rapidly induces mDA neuron marker loss"}]}, {"smiles": "CO[C@@]12[C@H](COC(N)=O)C3=C(C(=O)C(C)=C(N)C3=O)N1C[C@@H]1N[C@@H]12", "note": "[Mitomycin C, mitomycin C]", "values": [{"measurement": "post-mitotic neurons", "setting": "[1]", "result": "unaffected"}, {"measurement": "remaining proliferating cells", "setting": "[1]", "result": "helped to eliminate the remaining proliferating cells"}]}, {"smiles": "C[C@H]1c2cccc(O)c2C(=O)C2=C(O)[C@]3(O)C(=O)C(C(N)=O)=C(O)[C@@H](N(C)C)[C@@H]3[C@@H](O)[C@@H]21", "note": "[doxycycline]", "values": [{"measurement": "time to reversal of progerin-induced changes in nuclear morphology", "setting": "[2]", "result": "≤ 10", "unit": "days"}]}, {"smiles": "O=C1Cc2c([nH]c3ccc(Br)cc23)-c2ccccc2N1", "note": "[kenpaullone]", "values": [{"measurement": "survival of MNs", "setting": "motor neurons (MNs)", "result": "impressive ability to prolong the healthy survival of MNs"}]}]}
